This passage reports growth rescue activity results from PubChem BioAssay AID624258 (Broad Institute, 2012).

Molecules are shown by their SMILES. The source made the active and inactive calls. No rule for the calls is given here.

The first assay can be described thus: SKN7 mediated toxicity in Saccharomyces cerevisiae, growth rescue counterscreen, dose confirmation (AID 624258).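 Also: growth read after three days of incubation at 30 °C; 0% = median of neutral control wells.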 The conditions noted are these: S. cerevisiae SKN7-toxicity growth rescue, plate reader; at 6.8 µM (top of the series). For orientation: A counterscreen serves to expose hits that act by an unwanted route or on another target.
In the case of `Cc1ccc(C(=O)C(SC(C)(C)C)n2cncn2)cc1` (stereo not given), the growth rescue activity was 27.6% (inactive).

As for `COc1cc2nc(N3CCNCC3)nc(N)c2cc1OC`, the growth rescue activity is 5.76% (inactive).

The assay is the same for the next values; noted with them: S. cerevisiae SKN7-toxicity growth rescue, plate reader; at 19.5 µM (top of the series).
As for `Cn1c(N=Nc2ccccc2)nc2ccccc21`, the growth rescue activity is -85.7% (inactive). On to `O=[N+]([O-])c1ccc(Sc2ncccn2)c([N+](=O)[O-])c1`, for which the growth rescue activity was -6.92% (inactive). Same read-out and setting: in the case of `CC(=O)/C=C(\C)Nc1ccccc1O` it was -6.16% (inactive); in that of `Cn1c(-c2ccccc2)cnc1NCc1ccc(-c2ccccc2)cc1`, -67.3% (inactive); in that of `COc1cc(/C=N/O)cc(Br)c1OCc1cccc(Cl)c1`, -82% (inactive).

As for `N#CC1C(=N)Cc2ccccc2-c2ccccc21` (stereo not given), the growth rescue activity is -20.3% (inactive). On the same count and under the same terms, in the case of `C=CCOC(Cn1ccnc1)c1ccc(Cl)cc1Cl` (stereo not given) it was -40.8% (inactive); in that of `COC(=O)c1cccc2c1NC(=O)C2=O`, -14.3% (inactive).

On to `COc1ccc(O)c(C(=O)CC(=O)c2ccccc2C)c1`, for which the growth rescue activity is -60.2% (inactive).

With `CC1CCN(c2ccc3c(c2)S(=O)(=O)c2ccccc2C3=O)CC1`, the growth rescue activity was -45.6% (inactive).

Take `Oc1ccc(/C=N/Nc2ccc(C(F)(F)F)cn2)c(O)c1`: the growth rescue activity was -73.7% (inactive). The same measure, in the same setting: in the case of `O=[N+]([O-])c1ccc(S(=O)Cc2ccccc2)c([N+](=O)[O-])c1` (stereo not given) it was -45.8% (inactive). Still for that read-out and setting: in the case of `Cc1ccccc1Oc1nc(-c2ccccn2)nc2ccccc12` it was -58.6% (inactive); in that of `COc1ccc(-c2oc3ccccc3c2C#Cc2cncn2C)cc1`, -49.1% (inactive).

For `Clc1ccc(-c2n[nH]c3c2CCC3)cc1Cl`, the growth rescue activity was -54.5% (inactive). The same measure, in the same setting: in the case of `Clc1nc(-c2ccccn2)nc2scc(-c3ccccc3)c12` it was -76.2% (inactive); in that of `CC(CNC(=O)COc1ccccc1)OC(=O)Nc1ccc(Cl)c(Cl)c1` (stereo not given), -93.2% (inactive). On the same count and under the same terms, in the case of `O=S(=O)(NCCc1csc(-c2cccnc2)n1)c1ccc(Cl)s1` it was -65.2% (inactive); in that of `CCCCNc1c(-c2cccc(Sc3ccc(OC)cc3)c2)nc2ccccn12`, -86.4% (inactive). Consider `C[C@]12CCC(=O)C=C1CCC1C2CC[C@@]2(C)C1CC[C@]2(C)O` (stereo not given in full), for which the growth rescue activity is -16.5% (inactive). On the same count and under the same terms, the figure for `CCCCCC1CCC(c2n[nH]c(=S)n2C)CC1` (stereo not given) is -58.3% (inactive). Same read-out and setting: in the case of `O=S1(=O)CCN2C(=N1)Sc1c2ccc2c1CCCC2` it was 5.5% (inactive). Same read-out and setting: the figure for `COCCn1c(=NC(=O)CSC(C)=O)sc2cc(F)ccc21` is 56.5% (inactive); for `FC(F)(F)Oc1ccc(NC(=S)Nc2ccc(OC(F)(F)F)cc2)cc1` it is 26% (inactive); for `O=[N+]([O-])c1ccc(/C=N/NC(=S)Nc2ccc(Cl)cc2Cl)s1` it is -44% (inactive). Regarding `O=C(CSc1ccc(-c2ccccn2)nn1)NCc1ccc(Cl)cc1`, the growth rescue activity was -56.5% (inactive). Same read-out and setting: in the case of `S=c1[nH]nc(-c2ccco2)n1/N=C/c1ccc(Br)s1` it was 30.2% (inactive). Still for that read-out and setting: in the case of `CC(=O)Nc1cccc(-c2cc(-c3c(Cl)cccc3Cl)no2)c1` it was -92.6% (inactive).

As for `CCCn1nc(C(=O)N2CCN(S(=O)(=O)c3ccc(C)c(C)c3)CC2)c2ccccc2c1=O`, the growth rescue activity was -50.4% (inactive).

For `Cn1cncc1C#Cc1c(-c2ccsc2)sc2ccccc12`, the growth rescue activity was -77.3% (inactive). Turning to `Cc1nc2ccc(NC(=O)Cc3ccc4c(c3)OCCO4)cc2s1`, the growth rescue activity is 28.8% (inactive).

Turning to `CCOC(=O)C1CCCN(C(=O)c2cc(-c3ccc(C)cc3)nc3ccccc23)C1` (stereo not given), the growth rescue activity is 25.9% (inactive).

As to `O=C(O)/C(=C\c1ccc(F)cc1)c1ccc(-c2ccccc2)cc1`, the growth rescue activity is -66.8% (inactive). Same read-out and setting: in the case of `Nc1nc(-c2ccccc2)c(-c2ccc([N+](=O)[O-])cc2)s1` it was -79.9% (inactive); in that of `O=c1oc(-c2ccccc2)cc(Cl)c1Cl`, -71.1% (inactive). Regarding `O=C(COc1ccc([N+](=O)[O-])cc1)Nc1nc(-c2ccccn2)cs1`, the growth rescue activity is -63.6% (inactive). On the same count and under the same terms, in the case of `N#Cc1c(-c2ccco2)c2c([nH]c1=S)CCCC2` it was -16.7% (inactive); in that of `Cn1ccsc1=NC(=O)c1ccc([N+](=O)[O-])o1`, -53.8% (inactive). Still for that read-out and setting: in the case of `O=C(Nc1cccc(C(F)(F)F)c1)c1cccnc1NCCc1ccccc1` it was -54.3% (inactive); in that of `Oc1cccc2ccc(Nc3ccccn3)nc12`, 6.81% (inactive); in that of `Cc1ccc(S(=O)(=O)N(C(=O)c2ccncc2)c2ccc(OC(=O)c3ccncc3)cc2)cc1`, -57.3% (inactive). Same read-out and setting: in the case of `CC1CC(=Cc2ccc([N+](=O)[O-])cc2)C(=O)O1` (stereo not given) it was 2.43% (inactive); in that of `CCC(=O)NC(c1ccco1)c1cc(Cl)c2cccnc2c1O` (stereo not given), -49.4% (inactive).

In the case of `N#Cc1c(-c2cccc([N+](=O)[O-])c2)nc2n(c1=O)CCS2`, the growth rescue activity was 1.05% (inactive). `S=C(Nc1ccc(Oc2ccccc2)cc1)NC1CCCCCC1`: the growth rescue activity was -9.53% (inactive). As for `CC1=NN(C(N)=S)C(=O)C1N=Nc1cccc(Cl)c1C` (stereo not given), the growth rescue activity is -42.1% (inactive). The same measure, in the same setting: the figure for `O/N=C(\c1ccc(Cl)cc1Cl)c1ncc(C(F)(F)F)cc1Cl` is -32.2% (inactive); for `O=C(Nc1cc(Oc2ccc(Cl)cc2)cc([N+](=O)[O-])c1)c1ccco1` it is -42.9% (inactive); for `CC1(S(=O)(=O)O)CC(=O)c2ccccc2C1=O` (stereo not given) it is -12.1% (inactive). With `Nc1cc([N+](=O)[O-])ccc1O`, the growth rescue activity is -8.46% (inactive). For the compound `CNc1ccc2oc(C[C@H]3O[C@@]4(CC[C@H]3C)O[C@H]([C@H](C)C(=O)c3ccc[nH]3)[C@H](C)C[C@H]4C)nc2c1C(=O)O`, the growth rescue activity is -78.1% (inactive). On the same count and under the same terms, the figure for `Cc1cc(NC2=CC(=O)C(=O)c3ccccc32)no1` is -9.16% (inactive).

Regarding `O=[N+]([O-])c1ccc(Sc2cccc[n+]2[O-])c2nonc12`, the growth rescue activity was -4.98% (inactive).

For the compound `COc1cc(NS(=O)(=O)c2ccc(C)cc2)c2ncccc2c1`, the growth rescue activity was -51.9% (inactive). Take `O=c1c2ccccc2c(-c2ccc(O)cc2)nn1-c1cccc(C(F)(F)F)c1`: the growth rescue activity is -88.1% (inactive). Same read-out and setting: the figure for `CCCCC(=O)NC(c1ccco1)c1cc(Cl)c2cccnc2c1O` (stereo not given) is -45% (inactive); for `O=S(=O)(O)c1cc(Cl)cc(N=Nc2ccc(O)cc2O)c1O` it is 41.4% (inactive). Same read-out and setting: the figure for `CCN(CC)C(=O)CSc1ncnc2sc(-c3ccccc3)cc12` is -25.1% (inactive); for `O=C(OCC(=O)C12CC3CC(CC(C3)C1)C2)c1ccc(O)cc1` it is -10.8% (inactive); for `O=P(Nc1cccnc1)(Oc1ccccc1Cl)Oc1ccccc1Cl` it is -59% (inactive).

With `CCCCC(=O)NC(=S)NNC(=O)CCc1ccccc1`, the growth rescue activity was -22.9% (inactive). On the same count and under the same terms, the figure for `O=C(Nc1nnc(-c2ccccc2)o1)c1ccc(Cl)cc1` is -46.1% (inactive); for `Cc1ccc(S(=O)(=O)/N=C2/C=C(C3C(=O)CC(C)(C)CC3=O)C(=O)c3ccccc32)cc1` it is 18.5% (inactive); for `Cc1cc(C)c2sc(NNC(=O)c3ccc(S(=O)(=O)N4CCc5ccccc5C4)cc3)nc2c1` it is -31.4% (inactive).

`O=C(N1CCN(c2ccccc2)CC1)C1(S(=O)(=O)c2ccc(Cl)cc2)CC1`: the growth rescue activity was 21.3% (inactive).

As to `O=C(Nc1ccc(Br)c(C(F)(F)F)c1)c1ccccc1`, the growth rescue activity was -78.2% (inactive). On the same count and under the same terms, in the case of `N#Cc1c(N)nc(SCc2ccccc2)c(C#N)c1-c1ccco1` it was -27.7% (inactive); in that of `CCCCC(CC)c1nnc(NC(=O)c2cccs2)s1` (stereo not given), -59.6% (inactive). Same read-out and setting: the figure for `CCOC(=O)c1c2c(n(-c3ccc(OC)cc3)c1C)C(=O)C(=O)c1ccccc1-2` is -68% (inactive). On the same count and under the same terms, the figure for `Cn1nnnc1N=N/C(=N/Nc1ccccc1)c1ccccc1` is -47% (inactive). Consider `CC1CC(C)(O)CC(C(O)CC2CC(=O)NC(=O)C2)C1=O` (stereo not given), for which the growth rescue activity was 2.36% (inactive).

In the case of `COc1ccc(S(=O)(=O)Nc2cc(SCC(=O)O)c(O)c3ccccc23)cc1`, the growth rescue activity was 4.66% (inactive). Still for that read-out and setting: the figure for `CC1(C)CC(=O)C(N=Nc2ccc3ncsc3c2)=C(O)C1` is 0.603% (inactive); for `CN(C)c1ccc(C=c2c3ccccc3n3c2c2c([n+]3C)CCCC2)cc1` it is -74.1% (inactive); for `COC(=O)C1=NN(C(=O)c2cccc(Br)c2)C(O)(c2ccc(Cl)cc2)C1` (stereo not given) it is -17.5% (inactive). `COC(=O)c1cc(C#N)c(Oc2ccc(F)cc2)nc1C`: the growth rescue activity is -11.6% (inactive). Turning to `Cc1nc2ccc(C(=O)NCc3ccc4c(c3)OCO4)cc2s1`, the growth rescue activity is -2.94% (inactive).

With `CCOc1ccc(S(=O)(=O)Nc2cc(SCC(=O)O)c(O)c3ccccc23)cc1`, the growth rescue activity was 21.7% (inactive). Still for that read-out and setting: in the case of `CN(Cc1ccc(Cl)s1)C(=O)CCl` it was 19.3% (inactive).

Take `CC(C)CNC(=O)COC(=O)c1ccc([N+](=O)[O-])cc1Cl`: the growth rescue activity is 3.79% (inactive). In the case of `c1ccc(Nc2nc(-c3ccccn3)cs2)cc1`, the growth rescue activity is -0.973% (inactive). The same measure, in the same setting: in the case of `CCOC(=O)c1nnn(-c2ccc([N+](=O)[O-])cc2[N+](=O)[O-])c1C` it was 17.3% (inactive); in that of `CCOC(=O)c1c(C)[nH]c2c1-c1ccccc1C(=O)C2=O`, -17.4% (inactive).
